For 17 molecules, Ki results are on record in patent US9226916B2, “Pyrrolidine derivatives” (HOFFMANN-LA ROCHE INC., priority 2009, dated 2016).

The structures appear in SMILES notation.

One assay addresses T1, recombinant human NK3 receptor (Homo sapiens, UniProt P29371).
T1 construct: expressed in transfected cells; host or cells: HEK293 cells, transient expression; membranes
T1 sequence (P29371 1-465): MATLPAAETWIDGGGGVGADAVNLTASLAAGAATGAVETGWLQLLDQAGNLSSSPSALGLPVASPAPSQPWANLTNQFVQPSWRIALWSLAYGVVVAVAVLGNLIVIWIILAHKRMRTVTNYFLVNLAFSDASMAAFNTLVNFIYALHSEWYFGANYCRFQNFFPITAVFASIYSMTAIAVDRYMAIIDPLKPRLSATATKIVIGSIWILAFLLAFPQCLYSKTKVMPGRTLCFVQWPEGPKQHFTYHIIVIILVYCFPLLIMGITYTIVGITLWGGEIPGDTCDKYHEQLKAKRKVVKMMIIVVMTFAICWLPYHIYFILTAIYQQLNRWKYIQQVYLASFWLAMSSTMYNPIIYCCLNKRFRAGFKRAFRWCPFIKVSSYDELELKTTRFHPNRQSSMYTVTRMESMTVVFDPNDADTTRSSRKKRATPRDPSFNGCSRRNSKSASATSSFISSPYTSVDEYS
Briefly: [3H]SR142801 competition binding assay.
Conditions: not given
Take `Cc1ccnc(N2CCC(C(=O)N3C[C@@H](N(C)C(=O)Oc4ccc(F)cc4)[C@H](c4ccc(Cl)cc4)C3)CC2)n1` [Example 167, {(3S,4R)-4-(4-Chloro-phenyl)-1-[1-(4-methyl-pyrimidin-2-yl)-piperidine-4-carbonyl]-pyrrolidin-3-yl}-methyl-carbamic acid 4-fluoro-phenyl ester]: the Ki – broadly, the dissociation constant of the complex between target and ligand, obtained from inhibition or displacement – is 4.9 nM.

With `CN(C(=O)Oc1ccc(F)cc1)[C@@H]1CN(C(=O)C2CCN(C(=O)C3(C)CC3)CC2)C[C@H]1c1ccc(Cl)c(Cl)c1` [Example 6, {(3S,4R)-4-(3,4-Dichloro-phenyl)-1-[1-(1-methyl-cyclopropanecarbonyl)-piperidine-4-carbonyl]-pyrrolidin-3-yl}-methyl-carbamic acid 4-fluoro-phenyl ester], the Ki came to 0.5 nM. Consider `CN(C(=O)OCC1CC1)[C@H]1CN(C(=O)C2CCN(C(=O)C3(C)CC3)CC2)C[C@@H]1c1ccc(Cl)c(Cl)c1` (racemic) [Example 24, rac-{(3R,4S)-4-(3,4-Dichloro-phenyl)-1-[1-(1-methyl-cyclopropanecarbonyl)-piperidine-4-carbonyl]-pyrrolidin-3-yl}-methyl-carbamic acid cyclopropylmethyl ester], for which the Ki is 33.5 nM. Regarding `CN(C(=O)Oc1ccc(F)cc1)[C@@H]1CN(C(=O)C2CCN(c3ccc(C(F)(F)F)cn3)CC2)C[C@H]1c1ccc(F)c(Cl)c1` [Example 317, [(3S,4R)-4-(3-Chloro-4-fluoro-phenyl)-1-(5′-trifluoromethyl-3,4,5,6-tetrahydro-2H-[1,2′]bipyridinyl-4-carbonyl)-pyrrolidin-3-yl]-methyl-carbamic acid 4-fluoro-phenyl ester], the Ki was 1.6 nM.

`CN(C(=O)OC(c1ccc(F)cc1)C1CC1)[C@@H]1CN(C(=O)C2CCN(c3ccc(C#N)cn3)CC2)C[C@H]1c1ccc(Cl)cc1` (stereo partly drawn) [Example 239, [(3S,4R)-4-(4-Chloro-phenyl)-1-(5′-cyano-3,4,5,6-tetrahydro-2H-[1,2′]bipyridinyl-4-carbonyl)-pyrrolidin-3-yl]-methyl-carbamic acid cyclopropyl-(4-fluoro-phenyl)-methyl ester]: the Ki stood at 61.6 nM. Same read-out and setting: the figure for `CN(C(=O)Oc1ccc(F)cc1)[C@@H]1CN(C(=O)C2CCN(C(=O)C3CC3(F)F)CC2)C[C@H]1c1ccc(Cl)c(Cl)c1` (stereo partly drawn) [Example 274, {(3S,4R)-4-(3,4-Dichloro-phenyl)-1-[1-(2,2-difluoro-cyclopropanecarbonyl)-piperidine-4-carbonyl]-pyrrolidin-3-yl}-methyl-carbamic acid 4-fluoro-phenyl ester] is 0.9 nM. On the same count and under the same terms, the same measure for `CN(C(=O)Oc1cccc(F)c1F)[C@@H]1CN(C(=O)C2CCN(c3ccc(C#N)cn3)CC2)C[C@H]1c1ccc(Cl)cc1` [Example 211, [(3S,4R)-4-(4-Chloro-phenyl)-1-(5′-cyano-3,4,5,6-tetrahydro-2H-[1,2′]bipyridinyl-4-carbonyl)-pyrrolidin-3-yl]-methyl-carbamic acid 2,3-difluoro-phenyl ester]: 2.4 nM; for `CN(C(=O)Oc1ccc(F)cc1)[C@H]1CN(C(=O)C2CCN(CC3CC3)CC2)C[C@@H]1c1ccc(Cl)c(Cl)c1` (racemic) [Example 4, rac-[(3R,4S)-1-(1-Cyclopropylmethyl-piperidine-4-carbonyl)-4-(3,4-dichloro-phenyl)-pyrrolidin-3-yl]-methyl-carbamic acid 4-fluoro-phenyl ester]: 1.8 nM; for `CN(C(=O)Oc1ccccc1F)[C@@H]1CN(C(=O)C2CCN(c3ccc(C#N)cn3)CC2)C[C@H]1c1ccc(Cl)cc1` [Example 212, [(3S,4R)-4-(4-Chloro-phenyl)-1-(5′-cyano-3,4,5,6-tetrahydro-2H-[1,2′]bipyridinyl-4-carbonyl)-pyrrolidin-3-yl]-methyl-carbamic acid 2-fluoro-phenyl ester]: 1.4 nM. The same measure, in the same setting: the same measure for `CC(C)COC(=O)N(C)[C@@H]1CN(C(=O)C2CCN(c3ccc(C#N)cn3)CC2)C[C@H]1c1ccc(Cl)cc1` [Example 139, [(3S,4R)-4-(4-Chloro-phenyl)-1-(5′-cyano-3,4,5,6-tetrahydro-2H-[1,2′]bipyridinyl-4-carbonyl)-pyrrolidin-3-yl]-methyl-carbamic acid isobutyl ester]: 3.9 nM; for `CN(C(=O)OCC1CCOC1)[C@@H]1CN(C(=O)C2CCN(c3ccc(C#N)cn3)CC2)C[C@H]1c1ccc(Cl)cc1` (stereo partly drawn) [Example 233, [(3S,4R)-4-(4-Chloro-phenyl)-1-(5′-cyano-3,4,5,6-tetrahydro-2H-[1,2′]bipyridinyl-4-carbonyl)-pyrrolidin-3-yl]-methyl-carbamic acid tetrahydro-furan-3-ylmethyl ester]: 6 nM. For the molecule `CN(C(=O)Oc1ccc(F)cc1)[C@H]1CN(C(=O)N2CCOCC2)C[C@@H]1c1ccc(Cl)c(Cl)c1` (racemic) [Example 48, rac-[(3R,4S)-4-(3,4-Dichloro-phenyl)-1-(morpholine-4-carbonyl)-pyrrolidin-3-yl]-methyl-carbamic acid 4-fluoro-phenyl ester], the Ki is 29.4 nM. Consider `CN(C(=O)Oc1ccc(F)cc1)[C@@H]1CN(C(=O)C2CCN(c3ncc(C#N)cn3)CC2)C[C@H]1c1ccc(Cl)cc1` [Example 192, {(3S,4R)-4-(4-Chloro-phenyl)-1-[1-(5-cyano-pyrimidin-2-yl)-piperidine-4-carbonyl]-pyrrolidin-3-yl}-methyl-carbamic acid 4-fluoro-phenyl ester], for which the Ki worked out at 3.6 nM. Same read-out and setting: the same measure for `CN(C(=O)Oc1ccc(F)cc1)[C@@H]1CN(C(=O)C2CCN(c3cncc(C#N)n3)CC2)C[C@H]1c1ccc(Cl)cc1` [Example 187, {(3S,4R)-4-(4-Chloro-phenyl)-1-[1-(6-cyano-pyrazin-2-yl)-piperidine-4-carbonyl]-pyrrolidin-3-yl}-methyl-carbamic acid 4-fluoro-phenyl ester]: 2.6 nM; for `CN(C(=O)Oc1ccc(F)cc1)[C@H]1CN(C(=O)[C@H]2CC[C@H](O)CC2)C[C@@H]1c1ccc(Cl)c(Cl)c1` (stereo in doubt) [Example 45, [(3R,4S)-4-(3,4-Dichloro-phenyl)-1-(trans-4-hydroxy-cyclohexanecarbonyl)-pyrrolidin-3-yl]-methyl-carbamic acid 4-fluoro-phenyl ester]: 3.2 nM.

The same assay, now with this note: hNK-3 receptor affinity; membranes from HEK293 cells transiently expressing recombinant human NK3 receptor; [3H]SR142801; Cheng-Prussoff; read-out: Data Ki.
In the case of `CN(C(=O)O[C@]1(C)CC[C@@H](C)CC1)[C@@H]1CN(C(=O)C2CCN(c3ccc(C#N)cn3)CC2)C[C@H]1c1ccc(Cl)cc1` [Example 242, [(3S,4R)-4-(4-Chloro-phenyl)-1-(5′-cyano-3,4,5,6-tetrahydro-2H-[1,2′]bipyridinyl-4-carbonyl)-pyrrolidin-3-yl]-methyl-carbamic acid 1,4-dimethyl-cyclohexyl ester], the Ki turned out to be 2.7 nM. The same measure, in the same setting: the figure for `CN(C(=O)O[C@H]1CC[C@H](C(F)(F)F)CC1)[C@@H]1CN(C(=O)C2CCN(c3ccc(C#N)cn3)CC2)C[C@H]1c1ccc(Cl)c(Cl)c1` [Example 159, [(3S,4R)-1-(5′-Cyano-3,4,5,6-tetrahydro-2H-[1,2′]bipyridinyl-4-carbonyl)-4-(3,4-dichloro-phenyl)-pyrrolidin-3-yl]-methyl-carbamic acid 4-trifluoromethyl-cyclohexyl ester] is 0.4 nM.
